# Experimental data published in US8754093B2, “Co-crystal of etravirine and nicotinamide” (Janssen R&D Ireland, priority 2009, dated 2014).
# Tests used:
# [1] = Dissolution experiments with TMC125/nicotinamide co-crystal (10 mM HCl with 1% TPGS, HPLC); type: physicochemical; details: Simulated Gastric Fluid with 1% TPGS, 37° C., 500 rpm
# Description: This dissolution experiment was focused on looking at the difference between the cocrystal and TMC125 free base both neat and mixed with HPMC E5 Cps.
# A: 100 mg co-crystal: 100 mg HPMC E5 Cps (powder blend)
# B: 100 mg co-crystal (powder)
# C: 78 mg free base: 100 mg HPMC E5 Cps (powder blend)
# D: 78 mg free base (powder)
# Powders were dispensed to 20 mL vials and in 20 mL of 10 mM HCl with 1% TPGS (d-alpha-tocopheryl polyethylene glycol 1000 succinate) was added to each vial. Each […], filtered through a 0.45 μm nylon filter via centrifugation and the solute was diluted in half and analyzed by HPLC for the concentration of TMC125.
# [2] = cited from earlier work
# [3] = traditional formulations; cited from earlier work
smiles,measurement,setting,value
"Cc1cc(C#N)cc(C)c1Oc1nc(Nc2ccc(C#N)cc2)nc(N)c1Br [Neat TMC125 FB, 4-[[6-amino-5-bromo-2-[(4-cyanophenyl)amino]-4-pyrimidinyl]oxy]-3,5-dimethylbenzonitrile]",Concentration of TMC125,[1]; time 5 min,22.36 µg/mL
same,Concentration of TMC125,[1]; time 10 min,52.04 µg/mL
same,Concentration of TMC125,[1]; time 20 min,57.03 µg/mL
same,Concentration of TMC125,[1]; time 30 min,58.96 µg/mL
same,Concentration of TMC125,[1]; time 45 min,59.83 µg/mL
same,Concentration of TMC125,[1]; time 60 min,60.10 µg/mL
same,solubility in aqueous media,[2],very insoluble
same,bioavailability,[3],very low
